Experiments:
[1] = target: T1, Peroxisome proliferator-activated receptor alpha (Rattus norvegicus, UniProt P37230); assay: Agonist activity at rat PPARalpha in rat H4IIE cells assessed as gene induction; type: functional, cell-based
T1 sequence (P37230 whole entry): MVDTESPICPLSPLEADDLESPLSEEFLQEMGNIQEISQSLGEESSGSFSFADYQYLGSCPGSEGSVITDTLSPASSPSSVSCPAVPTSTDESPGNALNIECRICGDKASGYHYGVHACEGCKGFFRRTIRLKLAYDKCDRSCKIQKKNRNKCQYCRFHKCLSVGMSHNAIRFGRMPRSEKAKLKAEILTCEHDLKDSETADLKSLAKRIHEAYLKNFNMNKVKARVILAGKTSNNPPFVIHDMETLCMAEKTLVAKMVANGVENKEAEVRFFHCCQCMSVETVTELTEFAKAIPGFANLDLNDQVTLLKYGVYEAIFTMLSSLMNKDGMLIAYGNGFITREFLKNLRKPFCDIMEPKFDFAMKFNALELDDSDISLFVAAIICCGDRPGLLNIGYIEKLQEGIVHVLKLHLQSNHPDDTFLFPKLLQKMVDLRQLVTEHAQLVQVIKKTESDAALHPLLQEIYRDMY

[2] = Total clearance in Sprague-Dawley rat at 3 mg/kg, iv or 30 mg/kg, po; type: ADME, organism-based; settings: in vivo
[3] = AUC in Sprague-Dawley rat at 3 mg/kg, iv or 30 mg/kg, po; type: ADME, organism-based; settings: plasma
[4] = Cmax in Sprague-Dawley rat at 3 mg/kg, iv or 30 mg/kg, po; type: ADME, organism-based; settings: in vivo
[5] = Half life at terminal phase in Sprague-Dawley rat at 30 mg/kg, po; type: ADME, organism-based; design: dose 30 mg/kg, route oral; settings: in vivo, read-out: beta t1/2 (converted)
[6] = Metabolic stability in human liver microsomes at 5 uM; type: ADME, Microsome
[7] = Oral bioavailability in Sprague-Dawley rat at 30 mg/kg; type: ADME, organism-based; settings: in vivo

Row | Structure (SMILES) | EC50 [1] | also measured
1 | CCCCCCCN(C(=O)Nc1ccccc1C(F)(F)F)C1Cc2ccc(SC(C)(C)C(=O)O)cc2C1 (configuration not stated) | 6.39 µM | 
2 | CCCCCCCN(C(=O)Nc1ccccc1SC(F)(F)F)C1Cc2ccc(SC(C)(C)C(=O)O)cc2C1 (configuration not stated) | 1.96 µM | 
3 | CC(C)CCN(C(=O)Nc1ccc(OC(F)(F)F)cc1)C1Cc2ccc(SC(C)(C)C(=O)O)cc2C1 (configuration not stated) | 0.386 µM | 
4 | CC(C)(Sc1ccc2c(c1)C[C@H](NC(=O)Nc1ccc(OC(F)(F)F)cc1)C2)C(=O)O | 0.146 µM | 
5 | CCCCN(C(=O)Nc1ccc(OC(F)(F)F)cc1)C1Cc2ccc(SC(C)(C)C(=O)O)cc2C1 (configuration not stated) | 0.195 µM | 
6 | CCN(C(=O)Nc1ccc(OC(F)(F)F)cc1Br)C1Cc2ccc(SC(C)(C)C(=O)O)cc2C1 (configuration not stated) | > 1 µM | 
7 | CCCCCCCN(C(=O)Nc1ccc(SC)cc1)C1Cc2ccc(SC(C)(C)C(=O)O)cc2C1 (configuration not stated) | 0.419 µM | 
8 | CCCCCCCN(C(=O)Nc1ccc(SC(F)(F)F)cc1)C1Cc2ccc(SC(C)(C)C(=O)O)cc2C1 (configuration not stated) | 0.21 µM | 
9 | CCCCCN(C(=O)Nc1ccc(SC(F)(F)F)cc1)C1Cc2ccc(SC(C)(C)C(=O)O)cc2C1 (configuration not stated) | 0.046 µM | clearance [2]: 0.033 L/h/kg; AUC [3]: 54.7 µg·h/mL; Cmax [4]: 8.02 µg/mL; half-life [5]: 4.05 h; half-life at 5 µM [6]: 1.27 h; bioavailability [7]: 59%
10 | CCCCCCCN(C(=O)Nc1ccc(OC(F)(F)F)cc1)[C@@H]1Cc2ccc(SC(C)(C)C(=O)O)cc2C1 | 0.169 µM | 
11 | CCCCCCCN(C(=O)Nc1ccccc1F)C1Cc2ccc(SC(C)(C)C(=O)O)cc2C1 (configuration not stated) | > 10 µM | 
12 | CCN(C(=O)Nc1ccc(C(C)C)cc1)C1Cc2ccc(SC(C)(C)C(=O)O)cc2C1 (configuration not stated) | 0.032 µM | clearance [2]: 0.0486 L/h/kg; AUC [3]: 37.1 µg·h/mL; Cmax [4]: 32.4 µg/mL; half-life [5]: 2.92 h; half-life at 5 µM [6]: 0.2 h; bioavailability [7]: 34%
13 | CCCCN(C(=O)Nc1ccc(C(C)C)cc1)C1Cc2ccc(SC(C)(C)C(=O)O)cc2C1 (configuration not stated) | 0.26 µM | 
14 | CCCCCCCN(C(=O)Nc1ccc(OC(F)(F)F)cc1)[C@H]1Cc2ccc(SC(C)(C)C(=O)O)cc2C1 | > 13 µM | 
15 | CC(C)(Sc1ccc2c(c1)CC(N(CCCC(F)(F)F)C(=O)Nc1ccc(OC(F)(F)F)cc1)C2)C(=O)O (configuration not stated) | 0.707 µM | 
16 | CCCCCN(C(=O)Nc1ccc(C(C)C)cc1)C1Cc2ccc(SC(C)(C)C(=O)O)cc2C1 (configuration not stated) | 0.159 µM | 
17 | CCCCCN(C(=O)NC1Cc2ccc(SC(C)(C)C(=O)O)cc2C1)c1ccc(OC(F)(F)F)cc1 (configuration not stated) | > 5 µM | 
18 | CCCCCCCN(C(=O)Nc1ccccc1OC(F)(F)F)C1Cc2ccc(SC(C)(C)C(=O)O)cc2C1 (configuration not stated) | 4.99 µM | 
19 | CC(C)(Sc1ccc2c(c1)C[C@@H](NC(=O)Nc1ccc(OC(F)(F)F)cc1)C2)C(=O)O | 1.11 µM | 
20 | CCCCCCCCN(C(=O)Nc1ccc(OC(F)(F)F)cc1)C1Cc2ccc(SC(C)(C)C(=O)O)cc2C1 (configuration not stated) | 1.03 µM | 
21 | CN(C(=O)Nc1ccc(OC(F)(F)F)cc1)C1Cc2ccc(SC(C)(C)C(=O)O)cc2C1 (configuration not stated) | 2.85 µM | 
22 | CCCCCCN(C(=O)Nc1ccc(N(C)C)cc1)C1Cc2ccc(SC(C)(C)C(=O)O)cc2C1 (configuration not stated) | 0.219 µM | 
23 | CCCCCCCN(C(=O)Nc1cccc(C(F)(F)F)c1)C1Cc2ccc(SC(C)(C)C(=O)O)cc2C1 (configuration not stated) | 2.73 µM | 
24 | CC(C)(Oc1ccc(C2CC2(Cl)Cl)cc1)C(=O)O (configuration not stated) [CIPROFIBRATE] | > 10 µM | 
25 | CCCCCCCN(C(=O)Nc1ccc(C(C)C)cc1)C1Cc2ccc(SC(C)(C)C(=O)O)cc2C1 (configuration not stated) | 0.229 µM | 
26 | CC(C)CN(C(=O)Nc1ccc(OC(F)(F)F)cc1)C1Cc2ccc(SC(C)(C)C(=O)O)cc2C1 (configuration not stated) | 2.34 µM | 

Row | Structure (SMILES) | EC50 [1] | also measured
27 | CCN(C(=O)Nc1ccc(OC(F)(F)F)cc1)[C@H]1Cc2ccc(SC(C)(C)C(=O)O)cc2C1 | 0.165 µM | 
28 | COCCN(C(=O)Nc1ccc(OC(F)(F)F)cc1)C1Cc2ccc(SC(C)(C)C(=O)O)cc2C1 (configuration not stated) | 0.425 µM | 
29 | CCCCCCN(C(=O)Nc1ccc(C(C)C)cc1)C1Cc2ccc(SC(C)(C)C(=O)O)cc2C1 (configuration not stated) | 0.18 µM | 
30 | CCCCCCCN(C(=O)Nc1ccc(N(C)C)cc1)C1Cc2ccc(SC(C)(C)C(=O)O)cc2C1 (configuration not stated) | 0.252 µM | 
31 | CCCCCN(C(=O)Nc1ccc(OC(F)(F)F)cc1)C1Cc2ccc(SC(C)(C)C(=O)O)cc2C1 (configuration not stated) | 0.105 µM | clearance [2]: 0.015 L/h/kg; AUC [3]: 121 µg·h/mL; Cmax [4]: 16.6 µg/mL; half-life [5]: 7.19 h; half-life at 5 µM [6]: 1.67 h; bioavailability [7]: 24%
32 | CCCCCCN(C(=O)Nc1ccc(OC(F)(F)F)cc1)C1Cc2ccc(SC(C)(C)C(=O)O)cc2C1 (configuration not stated) | 0.166 µM | 
33 | CCCCCCCN(C(=O)Nc1ccc(F)cc1F)C1Cc2ccc(SC(C)(C)C(=O)O)cc2C1 (configuration not stated) | > 10 µM | 
34 | CCCCCCCN(C(=O)Nc1ccccc1)C1Cc2ccc(SC(C)(C)C(=O)O)cc2C1 (configuration not stated) | > 10 µM | 
35 | CCCCCCCN(C(=O)Nc1ccc(OC)cc1)C1Cc2ccc(SC(C)(C)C(=O)O)cc2C1 (configuration not stated) | 0.91 µM | 
36 | CCCCCCCN(C(=O)Nc1ccc(C(F)(F)F)cc1)C1Cc2ccc(SC(C)(C)C(=O)O)cc2C1 (configuration not stated) | 1.27 µM | 
37 | CCN(C(=O)Nc1ccc(OC(F)(F)F)cc1C)C1Cc2ccc(SC(C)(C)C(=O)O)cc2C1 (configuration not stated) | 0.598 µM | 
38 | CCN(C(=O)Nc1ccc(OC(F)(F)F)c(Br)c1)C1Cc2ccc(SC(C)(C)C(=O)O)cc2C1 (configuration not stated) | > 3 µM | 
39 | CCCCCCCN(C(=O)Nc1ccc(OC(F)(F)F)cc1)C1Cc2ccc(SC(C)(C)C(=O)O)cc2C1 (configuration not stated) | 0.294 µM | 
40 | CCCCCCCN(C(=O)Nc1cccc(F)c1)C1Cc2ccc(SC(C)(C)C(=O)O)cc2C1 (configuration not stated) | 2.67 µM | 
41 | CCN(C(=O)Nc1ccc(N(C)C)cc1)C1Cc2ccc(SC(C)(C)C(=O)O)cc2C1 (configuration not stated) | 0.117 µM | clearance [2]: 0.0066 L/h/kg; AUC [3]: 273 µg·h/mL; Cmax [4]: 72.3 µg/mL; half-life [5]: 4.46 h; half-life at 5 µM [6]: 1.33 h; bioavailability [7]: 58%
42 | CCN(C(=O)Nc1ccc(OC(F)(F)F)c(Cl)c1)C1Cc2ccc(SC(C)(C)C(=O)O)cc2C1 (configuration not stated) | > 3 µM | 
43 | CCCCCN(C(=O)Nc1ccc(N(C)C)cc1)C1Cc2ccc(SC(C)(C)C(=O)O)cc2C1 (configuration not stated) | 0.141 µM | clearance [2]: 0.0282 L/h/kg; AUC [3]: 63.6 µg·h/mL; Cmax [4]: 20.8 µg/mL; half-life [5]: 2.6 h; half-life at 5 µM [6]: 1.57 h; bioavailability [7]: 62%
44 | CCCCCCCN(C(=O)Nc1cccc(OC)c1)C1Cc2ccc(SC(C)(C)C(=O)O)cc2C1 (configuration not stated) | 1.11 µM | 
45 | CCCCCCCN(C(=O)Nc1ccccc1C)C1Cc2ccc(SC(C)(C)C(=O)O)cc2C1 (configuration not stated) | 7.54 µM | 
46 | CCN(C(=O)N(C)c1ccc(OC(F)(F)F)cc1)C1Cc2ccc(SC(C)(C)C(=O)O)cc2C1 (configuration not stated) | > 1 µM | 
47 | CCN(C(=O)Nc1ccc(SC(F)(F)F)cc1)C1Cc2ccc(SC(C)(C)C(=O)O)cc2C1 (configuration not stated) | 0.023 µM | clearance [2]: 0.018 L/h/kg; AUC [3]: 101 µg·h/mL; Cmax [4]: 5.67 µg/mL; half-life [5]: 3.84 h; half-life at 5 µM [6]: 1.67 h; bioavailability [7]: 100%
48 | CCCCN(C(=O)Nc1ccc(N(C)C)cc1)C1Cc2ccc(SC(C)(C)C(=O)O)cc2C1 (configuration not stated) | 0.561 µM | 
49 | CCCCCCN(C(=O)Nc1ccc(SC(F)(F)F)cc1)C1Cc2ccc(SC(C)(C)C(=O)O)cc2C1 (configuration not stated) | 0.249 µM | 
50 | CC(C)N(C(=O)Nc1ccc(OC(F)(F)F)cc1)C1Cc2ccc(SC(C)(C)C(=O)O)cc2C1 (configuration not stated) | > 5 µM | 
51 | CC(C)(Sc1ccc2c(c1)CC(NC(=O)Nc1ccc(OC(F)(F)F)cc1)C2)C(=O)O (configuration not stated) | 0.096 µM | 

Source: ChEMBL document CHEMBL1141364, “Design and synthesis of indane-ureido-thioisobutyric acids: A novel class of PPARalpha agonists” (Bioorg Med Chem Lett, 2007)
